Measurements from patent publication US5756473A, “6-O-methyl erythromycin D and process for making” (Abbott Laboratories, priority 1995, dated 1998).
Converted amounts (≈) assume the structure as drawn. Like-named read-outs stand apart in the source and are kept apart here.

Experiments:
Staphylococcus aureus = assay: In vitro antibacterial activity, agar dilution MIC (Staphylococcus aureus); format: cell-based; conditions: BHI agar, 35-37 °C, 20 to 24 hours
Experimental: (§1) The 6-O-methyl erythromycin D compound of the present invention was assayed in vitro for antibacterial activity as follows: Twelve petri dishes containing successive aqueous dilutions of the test compound mixed with 10 mL of sterilized Brain Heart Infusion (BHI) agar (Difco 0418-01-5) were prepared. Each plate was inoculated with 1:100 (or 1:10 for slow-growing strains, such as Micrococcus and Streptococcus) dilutions of up to 32 different microorganisms, using a Steers replicator block. The inoculated plates were incubated at 35°-37° C. for 20 to 24 hours. In addition, a control plate, using BHI agar containing no test compound, was prepared and incubated at the beginning and end of each test.
(§2) An additional plate containing a compound having known susceptibility patterns for the organisms being tested and belonging to the same antibiotic class as the test compound was also prepared and incubated as a further control, as well as to provide test-to-test comparability. Erythromycin A was used for this purpose.
(§3) After incubation, each disk was read. The minimum inhibitory concentration (MIC) was defined as the lowest concentration of drug yielding no growth, a slight haze, or sparsely isolated colonies on the inoculum spot as compared to the growth control.

[1] = tested on: Staphylococcus epidermidis; assay: In vitro antibacterial activity, agar dilution MIC (Staphylococcus epidermidis); format: cell-based
Experimental: as §1, §2, §3

Enterococcus faecium = assay: In vitro antibacterial activity, agar dilution MIC (Enterococcus faecium); format: cell-based; conditions: ATCC8043, strain ATCC 8043, BHI agar, 35-37 °C, 20 to 24 hours
Streptococcus bovis = assay: In vitro antibacterial activity, agar dilution MIC (Streptococcus bovis); format: cell-based; conditions: Streptococcus equinus
Experimental: as §1, §2, §3

Streptococcus agalactiae = assay: In vitro antibacterial activity, agar dilution MIC (Streptococcus agalactiae); format: cell-based
Experimental: as §1, §2, §3

Streptococcus pyogenes = assay: In vitro antibacterial activity, agar dilution MIC (Streptococcus pyogenes); format: cell-based; conditions: 35-37 °C, 20 to 24 hours
Experimental: as §1, §2, §3

Micrococcus luteus = assay: In vitro antibacterial activity, agar dilution MIC (Micrococcus luteus); format: cell-based
Experimental: as §1, §2, §3

Escherichia coli = assay: In vitro antibacterial activity, agar dilution MIC (Escherichia coli); format: cell-based; conditions: 35-37 °C, 20 to 24 hours
Enterobacter aerogenes = assay: In vitro antibacterial activity, agar dilution MIC (Enterobacter aerogenes); format: cell-based; conditions: Klebsiella aerogenes, ATCC13048; strain ATCC 13048; BHI agar, 35-37 °C, 20 to 24 hours
[2] = tested on: Acinetobacter calcoaceticus; assay: microbe, parasite or virus in culture
Experimental: as §1, §2, §3

Klebsiella pneumoniae = assay: microbe, parasite or virus in culture; conditions: ATCC8045
Experimental: as §1, §2, §3

Providencia stuartii = assay: In vitro antibacterial activity, agar dilution MIC (Providencia stuartii); format: cell-based; conditions: strain CMX 640, BHI agar, 35-37 °C, 20 to 24 hours
Pseudomonas aeruginosa = assay: In vitro antibacterial activity, agar dilution MIC (Pseudomonas aeruginosa); format: cell-based; conditions: for MIC: Pseudomonas aeruginosa
Experimental: as §1, §2, §3

Mycobaceterium smegmatis = assay: In vitro antibacterial activity, agar dilution MIC (Mycobaceterium smegmatis); format: cell-based
Experimental: as §1, §2, §3

Nocardia asteroides = assay: In vitro antibacterial activity, agar dilution MIC (Nocardia asteroides); format: cell-based; conditions: ATCC9970, strain ATCC 9970, BHI agar, 35-37 °C, 20 to 24 hours
Experimental: as §1, §2, §3

Candida albicans = assay: microbe, parasite or virus in culture
Experimental: as §1, §2, §3

microorganisms = assay: In vitro assay of antibacterial activity (overall conclusion); format: cell-based; conditions: overall conclusion from Table 1
Experimental: Erythromycin A was used for this purpose.
After incubation, each disk was read.

[3] = Staphylococcus aureus, strain 1775 Cipro R
[4] = Staphylococcus aureus, strain A5177
[5] = Staphylococcus aureus, strain A5278
[6] = strain DC-2, BHI agar, read-out: MIC
[7] = strain Juhl, BHI agar, read-out: MIC
[8] = strain KNK 437, BHI agar, read-out: MIC
[9] = strain SS, BHI agar, read-out: MIC
[10] = strain 2862, BHI agar, 35-37 °C, 20 to 24 hours
[11] = strain 5263, BHI agar, 35-37 °C, 20 to 24 hours
[12] = strain A5007, BHI agar, 35-37 °C, 20 to 24 hours
[13] = strain K799/WT, BHI agar, 35-37 °C, 20 to 24 hours

Row | Compound | MIC (Staphylococcus aureus; [3]) [µg/mL] | MIC (Staphylococcus aureus; [4]) [µg/mL] | MIC (Staphylococcus aureus; [5]) [µg/mL] | MIC (Enterococcus faecium) [µg/mL] | MIC (Streptococcus pyogenes; strain 930 const, BHI agar) [µg/mL] | MIC (Streptococcus pyogenes; strain 2548 induc, BHI agar) [µg/mL] | MIC (Micrococcus luteus) [µg/mL] | MIC (Escherichia coli; [6]) [µg/mL] | MIC (Escherichia coli; strain H560, BHI agar) [µg/mL] | MIC (Escherichia coli; [7]) [µg/mL] | MIC (Escherichia coli; [8]) [µg/mL] | MIC (Escherichia coli; [9]) [µg/mL] | MIC (Enterobacter aerogenes) [µg/mL] | MIC [2] [µg/mL] | MIC (Klebsiella pneumoniae) [µg/mL] | MIC (Providencia stuartii) [µg/mL] | MIC (Pseudomonas aeruginosa) [µg/mL] | MIC (Pseudomonas aeruginosa; [10]) [µg/mL] | MIC (Pseudomonas aeruginosa; [11]) [µg/mL] | MIC (Pseudomonas aeruginosa; [12]) [µg/mL] | further results
1 | CC[C@H]1OC(=O)[C@H](C)[C@@H](O[C@H]2C[C@@](C)(OC)[C@@H](O)[C@H](C)O2)[C@H](C)[C@@H](O[C@@H]2O[C@H](C)C[C@H](N(C)C)[C@H]2O)[C@](C)(O)C[C@@H](C)C(=O)[C@H](C)[C@@H](O)[C@]1(C)O [Erythromycin A, reference compound] | > 100 | 1.56 (≈ 2.13 µM) | > 100 | 0.05 (≈ 0.0681 µM) | > 100 | 6.2 (≈ 8.45 µM) | 0.01 (≈ 0.0136 µM) | 50 (≈ 68.1 µM) | 2.5 (≈ 3.41 µM) | 50 (≈ 68.1 µM) | 50 (≈ 68.1 µM) | 0.2 (≈ 0.273 µM) | 100 (≈ 136 µM) | 12.5 (≈ 17 µM) | 50 (≈ 68.1 µM) | > 100 | > 100 | > 100 | > 100 | > 100 | MIC (Staphylococcus aureus; Staphylococcus aureus, ATCC6538P, strain ATCC 6538P): 0.2 µg/mL (≈ 0.273 µM); MIC (Staphylococcus aureus; Staphylococcus aureus, NCTC10649, strain NCTC 10649): 0.2 µg/mL (≈ 0.273 µM); MIC (Staphylococcus aureus; Staphylococcus aureus, strain CMX 553): 0.2 µg/mL (≈ 0.273 µM); MIC (Staphylococcus aureus; Staphylococcus aureus, strain 642a): 0.2 µg/mL (≈ 0.273 µM); MIC [1]: 0.2 µg/mL (≈ 0.273 µM); MIC (Streptococcus bovis): 0.02 µg/mL (≈ 0.0273 µM); MIC (Streptococcus agalactiae): 0.05 µg/mL (≈ 0.0681 µM); MIC (Streptococcus pyogenes; strain EES61, BHI agar): 0.05 µg/mL (≈ 0.0681 µM); MIC (Micrococcus luteus; ATCC9341): 0.05 µg/mL (≈ 0.0681 µM); MIC (Pseudomonas aeruginosa; strain K799/61, BHI agar, 35-37 °C, 20 to 24 hours): > 100 µg/mL; MIC (Pseudomonas aeruginosa; [13]): > 100 µg/mL; MIC (Mycobaceterium smegmatis): 12.5 µg/mL (≈ 17 µM); MIC (Nocardia asteroides): 0.05 µg/mL (≈ 0.0681 µM)
2 | CC[C@H]1OC(=O)[C@H](C)[C@@H](O[C@H]2C[C@@](C)(O)[C@@H](O)[C@H](C)O2)[C@H](C)[C@@H](O[C@@H]2O[C@H](C)C[C@H](N(C)C)[C@H]2O)[C@](C)(OC)C[C@@H](C)C(=O)[C@H](C)[C@@H](O)[C@H]1C [Example 3, 6-O-Methylerythromycin D] | > 100 | 3.1 (≈ 4.32 µM) | > 100 | 0.1 (≈ 0.139 µM) | > 100 | 3.1 (≈ 4.32 µM) | 1.56 (≈ 2.17 µM) | > 100 | > 100 | > 100 | > 100 | 0.39 (≈ 0.543 µM) | > 100 | > 100 | > 100 | > 100 | 1.56 (≈ 2.17 µM) | > 100 | > 100 | > 100 | MIC (Staphylococcus aureus; Staphylococcus aureus, ATCC6538P, strain ATCC 6538P, read-out: MIC): 0.39 µg/mL (≈ 0.543 µM); MIC (Staphylococcus aureus; Staphylococcus aureus, NCTC10649, strain NCTC 10649, read-out: MIC): 0.39 µg/mL (≈ 0.543 µM); MIC (Staphylococcus aureus; Staphylococcus aureus, strain 642a, read-out: MIC): 0.39 µg/mL (≈ 0.543 µM); MIC (Staphylococcus aureus; strain CMX 553): 0.39 µg/mL (≈ 0.543 µM); MIC ([1]; strain 3519, BHI agar, 35-37 °C, 20 to 24 hours, read-out: MIC): 0.39 µg/mL (≈ 0.543 µM); MIC (Streptococcus bovis; strain A5169, BHI agar, 35-37 °C, 20 to 24 hours, read-out: MIC): 0.01 µg/mL (≈ 0.0139 µM); MIC (Streptococcus agalactiae; strain 508, BHI agar, 35-37 °C, 20 to 24 hours, read-out: MIC): 0.05 µg/mL (≈ 0.0696 µM); MIC (Streptococcus pyogenes; strain EES61, BHI agar, read-out: MIC): 0.05 µg/mL (≈ 0.0696 µM); MIC (Micrococcus luteus; ATCC9341, strain ATCC 9341, BHI agar, 35-37 °C, 20 to 24 hours, read-out: MIC): 0.05 µg/mL (≈ 0.0696 µM); MIC (Candida albicans): > 100 µg/mL; antibacterial effectiveness (in words) (Pseudomonas aeruginosa; Pseudomonas aeruginosa K799/61, comparison with Erythromycin A control): significantly more effective; MIC (Pseudomonas aeruginosa; strain BMH10, BHI agar, 35-37 °C, 20 to 24 hours): > 100 µg/mL; MIC (Pseudomonas aeruginosa; [13]): > 100 µg/mL; antibacterial effectiveness (in words) (Mycobaceterium smegmatis; Mycobaceterium smegmatis ATCC 114, comparison with Erythromycin A control): significantly more effective; MIC (Mycobaceterium smegmatis; strain ATCC 114, BHI agar, 35-37 °C, 20 to 24 hours, read-out: MIC): 0.78 µg/mL (≈ 1.09 µM); MIC (Nocardia asteroides): 0.05 µg/mL (≈ 0.0696 µM); antibacterial activity (in words) (microorganisms): effective antibacterial agent
